Data on 56 compounds can be found in PMC12040169 (PLOS Biology, 2025).

This data set in a line: in vitro. As to conditions: human, hela cells, % viability.

Molecules are shown by their SMILES.

For the compound `COc1ccccc1-c1nccnc1NCc1cc(OC)c(OC)c(OC)c1` [CBK036642], the viability (commonly a read-out of living cells in per cent, often relative to untreated cells) at 28.5 h, 10 µM was 90.6%.
Regarding `CS(=O)(=O)c1ccc(-c2ccc(COC3CCN(C(=O)CCCc4ccc(F)cc4)CC3)cn2)cc1` [CBK162229T], the viability at 28.5 h, 10 µM is 91.6%.
The same measure, in the same setting: the result for `COc1ccc(-c2cc(C(=O)NCc3cccnc3)c3cc(Br)ccc3n2)cc1` [CBK293958] reads 86.1%; that for `CC(C)(O)C#Cc1ccc(C(=O)NCCC(=O)O)s1` [CBK267704], 97.1%; that for `O=c1[nH]c2cc(Cl)c(Br)nc2[nH]1` [CBK026531], 76.9%.
Same read-out and setting: the result for `Cc1nc2n(n1)C1=CC(C)(C)CC(=O)C1=NN2` [CBK019050] reads 89.2%; that for `CN(C)CCCNC(=O)C1CCCCN1S(=O)(=O)c1ccc(C(C)(C)C)cc1` (centres unmarked) [CBK200070], 101%; that for `N=c1n(CCN2CCCCC2)c2ccccc2n1CC(O)COc1ccccc1` (centres unmarked) [CBK262451C], 88.5%.
Take `O=C(Nc1cccc2ccccc12)C(c1ccccc1)N1CCOCC1` (centres unmarked) [CBK269388]: the viability at 28.5 h, 10 µM came out at 102%.
On the same count and under the same terms, the result for `COc1cccc(Nc2c(C(=O)N3CCCCC3)cnc3nc(C)ccc23)c1` [CBK287817] reads 96%.
As to `O=S(=O)(NC(c1ccccc1)c1ccccc1)c1ccc(Cl)cc1` [CBK261759], the viability at 28.5 h, 10 µM is 104%.
The same measure, in the same setting: the value for `Cc1nn(-c2ccccc2)c(Cl)c1CN1C(=O)NC2(CCCC2)C1=O` [CBK305070] was 91.9%.
Same read-out and setting: the result for `COCCN1C(=O)C2(CC(=O)N(CCNS(C)(=O)=O)C2=O)c2cc(C)ccc21` (centres unmarked) [CBK075479] reads 98.2%.
The same measure, in the same setting: the value for `CCc1ccc(S(=O)(=O)Nc2ccc(O)c(C(=O)O)c2)cc1` [CBK299827] was 90.7%; that for `O=C(CC[C@@H]1CNC(=O)[C@@H]2C[C@H](NC(=O)C3CC3)CN12)Nc1ccccc1` [CBK289006] was 113%.
For the compound `COc1cccc(NC(=O)N2CCN3C(=O)[C@H](CC4CCCCC4)NC(=O)[C@H]3C2)c1` [CBK289615], the viability at 28.5 h, 10 µM is 117%.
Still for that read-out and setting: the value for `COc1ccccc1-c1ccc(CC2(C(=O)NCc3cccs3)CCOCC2)cc1` [CBK286517] was 93%; that for `O=C(NC(=S)Nc1ccc2oc(-c3cncc(Br)c3)nc2c1)c1cc([N+](=O)[O-])ccc1N1CCOCC1` [CBK268864] was 118%; that for `Cc1ccc(C(=O)C(OC(=O)c2cc(O)nc3ccccc23)c2ccccc2)cc1C` (centres unmarked) [CBK265515] was 90.9%.
For the compound `Cc1cccc(OC(=O)C2C(c3ccccc3)C(C(=O)O)C2c2ccccc2)c1` (centres unmarked) [CBK263843], the viability at 28.5 h, 10 µM turned out to be 94%.
On the same count and under the same terms, the result for `Cc1ccc(/C=N/n2c(S)nnc2COc2ccccc2)o1` [CBK265244] reads 110%; that for `CCNc1nccnc1-c1ccncc1` [CBK088586], 119%; that for `CNC(=O)c1cccnc1N1CCN(CCCC(c2ccc(F)cc2)c2ccc(F)cc2)CC1` [CBK025309C], 95%.
For the compound `O=C(C[C@@H]1CCNC[C@@H]1Cc1cc(-c2ccccc2)on1)N1CCN(c2ccccc2)CC1` [CBK289148], the viability at 28.5 h, 10 µM came out at 83.2%.
The same measure, in the same setting: the value for `N#CCCCN1CCC(Oc2nccnc2OCc2ccc(F)cc2)CC1` [CBK153643] was 115%.
For `Cc1cc(C)c2sc(NC(=O)c3ccccc3)nc2c1` [CBK287614], the viability at 28.5 h, 10 µM was 104%.
On the same count and under the same terms, the value for `COc1cc(-c2nccnc2N(C)Cc2ccccc2)cc(OC)c1OC` [CBK037424] was 96.5%; that for `CCOc1cc(NC2CCN(C(=O)Cc3ccncc3)CC2)ncn1` [CBK304752] was 101%.
On the same count and under the same terms, the value for `N#Cc1ccc(C(=O)Nc2ccc(N3CCNCC3)nc2)cc1` [CBK029435T] was 95.2%; that for `CCCn1c(SC(C)C(=O)c2cc(C)n(-c3ccc(Cl)cc3)c2C)n[nH]c1=O` (centres unmarked) [CBK295595] was 86.2%; that for `COC(=O)c1c(O)noc1C` [CBK023348] was 95.6%.
Still for that read-out and setting: the value for `O=C(N[C@H]1CCN2C(=O)N(c3cccc4nsnc34)C(=O)[C@@H]2C1)c1cccs1` [CBK289543] was 87%; that for `O=C(c1ccc(-c2nccnc2NCc2ccc(C(F)(F)F)cc2)cc1)N1CCOCC1` [CBK036931] was 100%.
On to `Cc1nc(C2CCN(Cc3cccc(F)c3)CC2)ncc1C(=O)Nc1ccc(F)cc1` [CBK285668], for which the viability at 28.5 h, 10 µM was found to be 107%.
With `O=C(c1ccc(F)cc1)N1CCN(c2ccccn2)CC1` [CBK287795], the viability at 28.5 h, 10 µM worked out at 104%.
The same measure, in the same setting: the result for `O=C(Nc1ccc(O)cc1C(=O)O)c1ccc2c(c1)C(=O)N(Cc1ccccc1)C2=O` [CBK266540] reads 88.7%.
On to `COc1ccc2nc(Nc3nc(=O)cc(CSc4nc5ccccc5s4)[nH]3)nc(C)c2c1` [CBK264854], for which the viability at 28.5 h, 10 µM turned out to be 110%.
Same read-out and setting: the result for `Cc1nccn1CCCn1cncc1-c1ccc2c(c1)CCCN2C` [CBK282962] reads 93.1%.
The same measure, in the same setting: the result for `CCC(=O)Nc1ccc(C(=O)Nc2ccc(S(=O)(=O)N3CCCCC3)cc2)cc1` [CBK269549] reads 84%.
Still for that read-out and setting: the result for `O=C(/C=C/c1ccccc1)Nc1cccc(C(=O)O)c1` [CBK287193] reads 94%.
For the compound `O=C(c1nn2c(C(F)(F)F)cc(-c3ccccc3)nc2c1Cl)N1CCOCC1` [CBK051498], the viability at 28.5 h, 10 µM amounted to 90.4%.
In the case of `N/C(=N/c1ccccn1)C(F)(F)F` [CBK021049], the viability at 28.5 h, 10 µM came out at 90.1%.
On the same count and under the same terms, the value for `COc1cccc(C(NC(=O)C2CCN(C(=O)c3ccccc3)CC2)c2ccccn2)c1` (centres unmarked) [CBK060036] was 103%.
Still for that read-out and setting: the result for `CN(C)CCNC(=O)c1sc2ccccc2c1CC1CCCCCN1C(=O)C1CCC1` (centres unmarked) [CBK286096] reads 105%; that for `Cn1c(/C=C/C=C/CN2CCN(Cc3ccccc3)CC2)nc2ccc([N+](=O)[O-])cc21` [CBK268281], 91.2%.
For `CCCCN1C(=O)C(O)(c2c(C)nn(CCO)c2N)c2ccccc21` (centres unmarked) [CBK304286], the viability at 28.5 h, 10 µM (bulk resorufin, single well) amounted to 116%.
`CC(=O)Nc1ccc(SC(C)c2nsc(NS(=O)(=O)c3ccc(-c4ccccc4)cc3)n2)cc1` (centres unmarked) [CBK047508]: the viability at 28.5 h, 10 µM is 91.5%.
Same read-out and setting: the result for `O=C(c1nc(=O)[nH][nH]1)N1CCN(Cc2ccc(C(F)(F)F)cc2)CC1` [CBK298312] reads 95.5%; that for `O=C(NCCc1cccs1)Nc1cc(F)ccc1F` [CBK043935], 113%.
The same measure, in the same setting: the result for `O=C(CC1c2ccccc2Oc2ccccc21)Nc1ccc(Cc2ccncc2)cc1` [CBK263271] reads 91.6%.
On the same count and under the same terms, the result for `O=C(O)c1ccc2[nH]cc(CN3CCOCC3)c2c1` [CBK287081] reads 89.9%; that for `O=C(NCCOc1ccccc1)NC(=O)C1CCNCC1` [CBK088187T], 119%.
Consider `O=S(=O)(CCN1CCC2(CC1)CN(CCO)c1ccccc12)c1ccccc1` [CBK126758], for which the viability at 28.5 h, 10 µM is 102%.
For `Cc1ccccc1Cn1c(CN2CCCCC2C)nc2c1c(=O)n(C)c(=O)n2C` (centres unmarked) [CBK269199], the viability at 28.5 h, 10 µM came to 91.2%.
For the compound `O=C(N/N=C/c1c(F)cccc1Cl)c1ccccc1O` [CBK261815], the viability at 28.5 h, 10 µM was found to be 113%.
As to `NC(=O)CN1CC2(CCN(CCS(=O)(=O)c3ccccc3)CC2)c2ccccc21` [CBK126786], the viability at 28.5 h, 10 µM was 103%.
